Columns and labels:
Assay type in all cases: cell-based, human
erythroid colonies = experiment: Hemoglobin production by erythroid colonies, anion exchange HPLC; conditions: 5% O2, 2 U/ml Epo; for adult Hb / fetal Hb / total Hb: 100 μM hemin, 1.0 mg/ml HAo or HEMOLINK, 250 μM FeCl3; for adult Hb per cell / fetal Hb per cell / total Hb per cell: estimated assuming 30,000 cells/BFU-E and 100 cells/CFU-E
Protocol: Hemoglobin synthesis in erythroid colonies was analyzed by anion exchange high performance liquid chromatography (HPLC). Colonies were harvested from CFA plates and cell lysates were prepared after the progenitor colonies had been enumerated. Colonies were isolated from methyl cellulose by several washes in PBS. The cells were pelleted and lysed in 50 mM Tris, pH 8.8 and the cell debris removed by pelleting the cell lysate. The lysate supernatants were filtered through a 0.2 ,μm filter prior to loading onto a POROS® HQ/H anion exchange HPLC column (PerSeptive Biosystems). The hemoglobin was eluted with an increasing NaCl gradient and the optical density (O.D.) monitored at a wavelength of 414 nm The amount of hemoglobin present in the lysates was quantitated by comparison with standard hemoglobin solutions of adult (HbA) and fetal hemoglobin (HbF).
Representative HPLC profiles for hemoglobin produced by erythroid colonies that formed at 5% O2 in the presence of 2 U/ml Epo with no addition (vehicle only), 100 μM hemin, 1.0 mg/ml HAo (15.6 μM) HAo, 1.0 mg/ml HEMOLINK™ (15.6 μM), or 250 μM FeCl3 are shown in FIG. 7.

CFU-E = experiment: Colony formation assay (CFA), cord blood LDMNC: CFU-E colonies; conditions: 5% O2, 0.2 U/ml Epo; 100 μM hemin, 1.0 mg/ml HAo or HEMOLINK; relative to controls at 2 U/ml Epo, ambient O2
BFU-E = experiment: Colony formation assay (CFA), cord blood LDMNC: BFU-E colonies; conditions: for fold increase in BFU-E number over untreated controls (no addition) at 0.2 U/ml Epo / fold increase in BFU-E at 5% O2: 1.0 mg/ml HAo or HEMOLINK; for fold increase in BFU-E number over untreated controls (no addition) at 0.2 U/ml Epo: 250 μM FeCl3; for fold increase in BFU-E at 5% O2: 5% O2, 2 U/ml Epo, relative to untreated controls at ambient O2; for BFU-E progenitor number, fold increase: 2 U/ml Epo, ambient O2, vs vehicle control
Protocol: This technique, referred to as the colony formation assay (CFA), is the most widely used biological assay to identify and enumerate erythroid progenitors present in hematopoietic tissue such as blood and bone marrow. Cell populations containing erythroid progenitors are plated in semi-solid suspensions of methyl cellulose, agar, low melting agarose or related substances in nutrient culture medium containing 1-3 U/ml Epo and 10 ng/ml IL-3 to specifically stimulate erythroid progenitors. Plates are incubated at 37° C. for 14 days during which time the erythroid progenitors form characteristic hemoglobinized (red) colonies. Two distinct but related erythroid progenitors can be distinguished based on colony size and morphology: BFU-E, the most primitive recognizable erythroid progenitor forms large multilobular colonies whereas the more mature CFU-E forms smaller spherical colonies.
Adult hemoglobin was purified according to U.S Pat. Nos. 5,439,591 and 5,545,328 to obtain HAo and HEMOLINK™ was prepared from HAo according to U.S. Pat. No. 5,532,352. Human umbilical cord blood intended for discard was collected from the umbilical vein of placentas immediately postpartum into 10 ml vacutainer tubes containing 143 USP units/ml sodium heparin. Low density mononuclear cells were separated from red blood cells by centrifugation over a 1.077 g/ml density gradient Cells removed from the plasma/density gradient interface were incubated overnight in a tissue culture flask with 10 ml cell culture medium containing 10% fetal bovine serum, and non-adherent LDMNC were further purified with an additional density gradient step. The LDMNC were then plated into colony formation assays (CFA) on the second day of isolation. In the CFA, LDMNC were plated at a density of 1×10^5 cells/ml in Iscoves modified Dulbeccos cell culture medium containing 0.8% methyl-cellulose, 30% fetal bovine serum, 1% bovine serum albumin, 0.1 mM 2-mercaptoethanol and 2 mM L-glutamine. Unless indicated otherwise, under standard CFA conditions 2 U/ml Epo and 10 ng/ml IL-3 are added to the formulation to stimulate hematopoietic progenitor growth, specifically BFU-E, CFU-E and CFU-GM.
Each condition was tested in duplicate in from 2-18 independent experiments. Cultures were maintained in a humidified incubator at 37° C., 5% CO2 and ambient oxygen tensions. The number of hematopoietic progenitors was scored between days 13-15 by counting the number and types of colonies present.
Erythroid progenitor colony formation assays were conducted as described in Example 1 except that cultures were incubated at either ambient oxygen tensions (˜20% O2) or 5% O2. The reduced oxygen tension of 5% O2 approximates the physiological intravascular oxygen tension in mammals. The mean fold increase in cord blood BFU-E, CFU-E and CFU-GM progenitor number at 5% O2 produced by 1.0 mg/ml HAo (15.6 μM; n=11) or HEMOLINK™ (15.6 μM; n=6), 100 μM hemin (n=10), 250 μM FeCl3 (n=6) or no addition (n=17-18), is shown FIG. 2. Results are expressed relative to control cells treated only with respective vehicles and cultured at ambient oxygen tensions (˜20% O2; fold expansion=1.0; *p<0.05, **p<0.01).
Erythroid progenitor colony formation assays were conducted as described in Example 1 except that cultures were initiated in the presence of Epo concentrations ranging from 0-2 U/ml. The mean fold increase in cord blood BFU-E, CFU-E and CFU-GM progenitor number produced by 1.0 mg/ml HAo (15.6 μM; n=9) or HEMOLINK™ (15.6 μM; n=6), 100 μM hemin (n=8), 250 μM FeCl3 (n=6), or no addition (n=9-10) in the presence of reduced Epo concentrations (0.2 U/ml) is shown in FIG. 3. Cultures were maintained at ambient oxygen tensions (˜20% O2) for 14 days. Results are expressed relative to control cells at 2 U/ml Epo treated only with the respective vehicles (solid line at fold expansion=1.0; *p<0.05, **p<0 01). Erythroid progenitor colonies were undetectable in the absence of Epo. […]

Molecule: HAo: adult human hemoglobin obtained from red blood cells and purified by displacement chromatography; uncross linked product
- adult Hb (erythroid colonies): 22.6 µg
- fetal Hb (erythroid colonies): 33.1 µg
- total Hb (erythroid colonies): 55.7 µg
- adult Hb per cell (erythroid colonies): 0.37 pg/cell
- fetal Hb per cell (erythroid colonies): 0.54 pg/cell
- total Hb per cell (erythroid colonies): 0.91 pg/cell
- fold increase in CFU-E at 0.2 U/ml Epo and 5% O2 (CFU-E): 2.1 fold
- fold increase in BFU-E number over untreated controls (no addition) at 0.2 U/ml Epo (BFU-E; 0.2 U/ml Epo, ambient O2): 3 fold
- fold increase in BFU-E at 5% O2 (BFU-E; 100 μM hemin): ~8 fold
- BFU-E progenitor number, fold increase (BFU-E; dose 10 μg/ml): 1.1 fold
- BFU-E progenitor number, fold increase (BFU-E; dose 100 μg/ml): 1.3 fold
- BFU-E progenitor number, fold increase (BFU-E; dose 500 μg/ml): **1.7 fold

Molecule: HEMOLINK™: chemically crosslinked hemoglobin prepared by treating human hemoglobin with a polyaldehyde (O-raffinose)
- adult Hb (erythroid colonies): 20.5 µg
- fetal Hb (erythroid colonies): 28.0 µg
- total Hb (erythroid colonies): 48.5 µg
- adult Hb per cell (erythroid colonies): 0.38 pg/cell
- fetal Hb per cell (erythroid colonies): 0.51 pg/cell
- total Hb per cell (erythroid colonies): 0.89 pg/cell
- fold increase in CFU-E at 0.2 U/ml Epo and 5% O2 (CFU-E): 1.7 fold
- reduction of toxicity of ganciclovir to BFU-E (BFU-E; 1 mg/ml HEMOLINK plus 0-100 μM ganciclovir): about 10 fold
- fold increase in BFU-E number over untreated controls (no addition) at 0.2 U/ml Epo (BFU-E; 0.2 U/ml Epo, ambient O2): 3 fold
- fold increase in BFU-E at 5% O2 (BFU-E; 100 μM hemin): ~8 fold

Molecule: [Cl][Fe]([Cl])[Cl] [FeCl3]
- adult Hb (erythroid colonies): 5.0 µg
- fetal Hb (erythroid colonies): 9.5 µg
- total Hb (erythroid colonies): 14.5 µg
- adult Hb per cell (erythroid colonies): 0.14 pg/cell
- fetal Hb per cell (erythroid colonies): 0.26 pg/cell
- total Hb per cell (erythroid colonies): 0.40 pg/cell
- BFU-E progenitor number, fold increase (BFU-E; dose 1.0 μM): 1.2 fold
- BFU-E progenitor number, fold increase (BFU-E; dose 10 μM): 1.4 fold
- BFU-E progenitor number, fold increase (BFU-E; dose 250 μM): *1.7 fold

Molecule: C=CC1=C(C)C2=Cc3c(C=C)c(C)c4[n]3[Fe-2]35([Cl])[n]6c(c(C)c(CCC(=O)O)c6=CC6=[N+]3C(=C4)C(C)=C6CCC(=O)O)=CC1=[N+]25 [hemin]
- adult Hb (erythroid colonies): 8.7 µg
- fetal Hb (erythroid colonies): 19.4 µg
- total Hb (erythroid colonies): 28.1 µg
- adult Hb per cell (erythroid colonies): 0.14 pg/cell
- fetal Hb per cell (erythroid colonies): 0.32 pg/cell
- total Hb per cell (erythroid colonies): 0.46 pg/cell
- fold increase in CFU-E at 0.2 U/ml Epo and 5% O2 (CFU-E): 3.2 fold
- BFU-E number at 0.2 U/ml Epo compared with untreated controls at 2 U/ml Epo (BFU-E; 0.2 U/ml Epo, ambient O2, 100 μM hemin): generated the same number of BFU-E as the untreated controls at 2 U/ml Epo
- fold increase in BFU-E at 5% O2 (BFU-E; 100 μM hemin): ~8 fold
- BFU-E progenitor number, fold increase (BFU-E; dose 1.0 μM): 0.9 fold
- BFU-E progenitor number, fold increase (BFU-E; dose 10 μM): 1.5 fold
- BFU-E progenitor number, fold increase (BFU-E; dose 250 μM): 2.2 fold

From patent US20020120098A1, “Enhanced stimulation of erythropoiesis” (priority 1996, published 2002)
